As a reminder, the GI50 is the concentration giving 50% growth inhibition.

SMILES strings stand for the structures.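 Each compound was tested at five concentrations against cells in 96-well plates for 48 hours. GI50: concentration for 50% inhibition of growth.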 Calls of active or inactive are those of the source. Cut-off read from the data, not from the text of the source: active = GI50 up to about 1.1 µM and inactive = higher.

The record followed here is ChEMBL document CHEMBL1201862, “PubChem BioAssay data set” (2004).

Test systems include U-251; IGROV-1; UACC-62; SK-MEL-2; SF-539; SN12C; Malme-3M; CCRF-CEM; NCI-H460; UACC-257; SK-MEL-28; OVCAR-3; SK-MEL-5; K562; KM12; HCT-116; UO-31; BT-549; PC-3; MDA-MB-231.
Test in all cases: DTP human tumour cell line panel, 48 h

In the case of `O=[N+]([O-])c1nc(-c2ccccn2)[nH]c1[N+](=O)[O-]`, the GI50 with U-251 is 55.2 µM (inactive); in the assay on IGROV-1, > 100 µM (inactive); with UACC-62 it was 26.3 µM (inactive); in the assay with SK-MEL-2 it was > 100 µM (inactive); in the assay with SF-539 it was 39.6 µM (inactive); with SN12C, 71.6 µM (inactive). Further, the GI50 in the assay on Malme-3M is 57.4 µM (inactive); in the assay on CCRF-CEM, 33.3 µM (inactive); in the assay with NCI-H460, 36.6 µM (inactive); with UACC-257, 53.2 µM (inactive); in the assay with SK-MEL-28, 54.7 µM (inactive); in the assay on OVCAR-3, 59.2 µM (inactive). Besides, the GI50 was 79.3 µM (inactive) in the assay on SK-MEL-5; > 100 µM (inactive) with K562; > 100 µM (inactive) with KM12; 22.3 µM (inactive) in the assay on HCT-116; 70.3 µM (inactive) in the assay on UO-31.
For the molecule `O=C(O)C1(Cc2ccccc2)Cc2ccccc2C1`, the GI50 with U-251, with IGROV-1, in the assay on UACC-62, in the assay on SK-MEL-2, in the assay on SF-539 and in the assay on SN12C was > 100 µM (inactive) throughout. Also, the GI50 in the assay on Malme-3M, with CCRF-CEM, with NCI-H460, with BT-549, in the assay with UACC-257 and in the assay on SK-MEL-28 was > 100 µM (inactive) throughout. Moreover, the GI50 with PC-3, with MDA-MB-231, in the assay with OVCAR-3, in the assay with SK-MEL-5, in the assay on K562 and in the assay with KM12 was > 100 µM (inactive) in each case. The GI50 in the assay with HCT-116 and in the assay with UO-31 was > 100 µM (inactive) in each case.
As to `COc1cc(C2=C(C#N)C(N)OC3=C2COc2ccccc23)cc(OC)c1OC` (stereo unspecified), the GI50 in the assay on U-251 was 14.7 µM (inactive); in the assay on IGROV-1, 22.9 µM (inactive); in the assay on UACC-62, 50.4 µM (inactive); with SK-MEL-2, 28.5 µM (inactive); in the assay on SF-539 it was 20.4 µM (inactive); in the assay on SN12C, 16.1 µM (inactive). The GI50 was 11.9 µM (inactive) with Malme-3M; 0.938 µM (active) in the assay on CCRF-CEM; 19.4 µM (inactive) with NCI-H460; 42.8 µM (inactive) in the assay with BT-549; 31.3 µM (inactive) with UACC-257; 24.8 µM (inactive) with SK-MEL-28. Besides, the GI50 with PC-3 is 16.6 µM (inactive); with MDA-MB-231, 15.2 µM (inactive); with OVCAR-3 it was 14.2 µM (inactive); in the assay with SK-MEL-5 it was 25.2 µM (inactive); in the assay on K562 it was 78 µM (inactive); in the assay on KM12, 81.7 µM (inactive). Moreover, the GI50 is 16.7 µM (inactive) in the assay with HCT-116 and 4.15 µM (inactive) in the assay with UO-31.
In the case of `CN1C=C(C(N)=O)C2CC(O)[C@@](NC(=O)CS(N)(=O)=O)(C(=O)O)C2C1` (stereo partly specified), the GI50 in the assay on U-251 is 3.05 µM (inactive); in the assay with IGROV-1 it was 2.73 µM (inactive); in the assay on UACC-62, 2.17 µM (inactive); in the assay with SK-MEL-2 it was 2.92 µM (inactive); with SF-539, 2.05 µM (inactive); in the assay with SN12C, 18.2 µM (inactive). The GI50 with Malme-3M was 4.57 µM (inactive); in the assay with CCRF-CEM, 9.33 µM (inactive); with NCI-H460, 3.49 µM (inactive); with UACC-257, 5.24 µM (inactive); in the assay with SK-MEL-28, 2.43 µM (inactive); with OVCAR-3, 17.5 µM (inactive). Further, the GI50 was 6.31 µM (inactive) in the assay with SK-MEL-5; 2.17 µM (inactive) in the assay with K562; 20.7 µM (inactive) in the assay with KM12; 3.32 µM (inactive) with HCT-116; 3.05 µM (inactive) in the assay with UO-31.
On to `CCOC(=O)NC(Nc1cc(Cl)ccc1OC)(C(F)(F)F)C(F)(F)F`, for which the GI50 in the assay with U-251, in the assay on IGROV-1, in the assay with UACC-62, in the assay on SK-MEL-2, with SF-539 and in the assay on SN12C was > 100 µM (inactive) in each case. Also, the GI50 in the assay with Malme-3M was > 100 µM (inactive); in the assay with CCRF-CEM it was 25.9 µM (inactive); in the assay with NCI-H460, > 100 µM (inactive); with BT-549, > 100 µM (inactive); with UACC-257 it was > 100 µM (inactive); with SK-MEL-28 it was > 100 µM (inactive). Moreover, the GI50 in the assay with MDA-MB-231, with OVCAR-3, in the assay with SK-MEL-5, in the assay on K562, in the assay with KM12 and in the assay with HCT-116 was > 100 µM (inactive) each time. In addition, in the assay with UO-31, the GI50 is 30.1 µM (inactive).
For the molecule `C[N+](C)(CCCCCC[N+](C)(C)CCCN1C(=O)c2cccc3cccc(c23)C1=O)CCCN1C(=O)c2cccc3cccc(c23)C1=O`, the GI50 is > 100 µM (inactive) in the assay with U-251; > 100 µM (inactive) in the assay with IGROV-1; 33 µM (inactive) in the assay with UACC-62; > 100 µM (inactive) in the assay with SK-MEL-2; > 100 µM (inactive) in the assay on SF-539; > 100 µM (inactive) in the assay with SN12C. For the same molecule, the GI50 with Malme-3M, in the assay with CCRF-CEM, in the assay with NCI-H460, in the assay with BT-549, with UACC-257 and in the assay with SK-MEL-28 was > 100 µM (inactive) each time. Besides, the GI50 in the assay with PC-3 was > 100 µM (inactive); in the assay with MDA-MB-231, 56.2 µM (inactive); in the assay on OVCAR-3, 84.9 µM (inactive); in the assay on SK-MEL-5 it was > 100 µM (inactive); in the assay with K562, > 100 µM (inactive); in the assay on KM12, > 100 µM (inactive). Also, the GI50 in the assay with HCT-116 was 72.8 µM (inactive); in the assay with UO-31, > 100 µM (inactive).
For `CC12CCC3=C(CSC4=C3CSc3ccccc34)C1=CCCC2=O` (stereo unspecified), the GI50 was 42.8 µM (inactive) in the assay with U-251; 64.3 µM (inactive) with SK-MEL-2; 75.7 µM (inactive) with SF-539; > 100 µM (inactive) with SN12C; 31 µM (inactive) in the assay with Malme-3M; 69.8 µM (inactive) in the assay on CCRF-CEM. Besides, the GI50 was 45.2 µM (inactive) in the assay with NCI-H460; > 100 µM (inactive) with SK-MEL-28; 13.5 µM (inactive) in the assay with OVCAR-3; 17.4 µM (inactive) in the assay with SK-MEL-5; 40.8 µM (inactive) in the assay on K562; 54.2 µM (inactive) with KM12. Moreover, the GI50 in the assay on HCT-116 was 58.3 µM (inactive); in the assay with UO-31, 70.1 µM (inactive).
In the case of `S=C1SC(=N\c2ccccc2)/C(=N/c2ccccc2)N1c1ccc2ccccc2c1`, the GI50 with U-251, in the assay on IGROV-1, in the assay on UACC-62, in the assay on SK-MEL-2, in the assay with SN12C and in the assay with Malme-3M was > 100 µM (inactive) in each case. In addition, the GI50 in the assay on CCRF-CEM is > 100 µM (inactive); in the assay on NCI-H460, > 10 µM (inactive); with BT-549, > 100 µM (inactive); with SK-MEL-28, > 100 µM (inactive); with PC-3, > 100 µM (inactive); with MDA-MB-231, > 100 µM (inactive). For the same molecule, the GI50 in the assay on OVCAR-3 was > 100 µM (inactive); in the assay on SK-MEL-5, 38.1 µM (inactive); in the assay with K562, > 100 µM (inactive); in the assay on KM12, > 100 µM (inactive); in the assay on HCT-116, 12.1 µM (inactive); in the assay with UO-31, > 100 µM (inactive).
`CN(C)CCCNC(=O)c1cccc2ccccc12`: the GI50 in the assay with U-251, in the assay on UACC-62, in the assay with SK-MEL-2, with SF-539, in the assay with SN12C and in the assay on Malme-3M was > 100 µM (inactive) each time. The GI50 with CCRF-CEM, in the assay with NCI-H460, in the assay on UACC-257, with SK-MEL-28, in the assay on OVCAR-3 and in the assay on SK-MEL-5 was > 100 µM (inactive) each time. Besides, the GI50 in the assay on K562 is > 100 µM (inactive); in the assay with KM12 it was > 100 µM (inactive); in the assay with HCT-116 it was > 100 µM (inactive); in the assay on UO-31, > 10 µM (inactive).
In the case of `C[C@H]1SC(c2ccc(Cl)cc2Cl)N(NC(=O)c2ccncc2)C1=O` (stereo partly specified), the GI50 in the assay on U-251 was 40.6 µM (inactive); in the assay on IGROV-1 it was 41.2 µM (inactive); with UACC-62, 26.2 µM (inactive); with SK-MEL-2, 24.3 µM (inactive); in the assay on SN12C, 45.9 µM (inactive); with Malme-3M, 64.1 µM (inactive). Moreover, the GI50 was 30.1 µM (inactive) with CCRF-CEM; 45.5 µM (inactive) in the assay on NCI-H460; 36.6 µM (inactive) with BT-549; 31.3 µM (inactive) in the assay on SK-MEL-28; 15.1 µM (inactive) with PC-3; 33.9 µM (inactive) with MDA-MB-231. In addition, the GI50 in the assay on OVCAR-3 was 42 µM (inactive); in the assay with SK-MEL-5 it was 19.2 µM (inactive); in the assay on K562, 23.5 µM (inactive); with KM12 it was 36.7 µM (inactive); with HCT-116 it was 20 µM (inactive); with UO-31 it was 25.3 µM (inactive).
In the case of `O=C(Nc1ccn(CCO)c(=O)n1)c1ccccc1`, the GI50 in the assay on U-251, in the assay with IGROV-1, in the assay with UACC-62, with SK-MEL-2, with SF-539 and with SN12C was > 100 µM (inactive) in each case. For the same molecule, the GI50 in the assay on Malme-3M, in the assay on CCRF-CEM, in the assay on NCI-H460, in the assay on UACC-257, in the assay on SK-MEL-28 and with OVCAR-3 was > 100 µM (inactive) throughout. In addition, the GI50 in the assay with SK-MEL-5, in the assay with K562, in the assay with KM12, with HCT-116 and with UO-31 was > 100 µM (inactive) throughout.
